Assay results taken from PMC6594919 (Pharmacology Research & Perspectives, 2019).

Assays:
[1] = In vitro microdialysis with the intravenous EIRUS CVC catheter: drug concentrations in medium and dialysate, relative recovery (RRT, RRU); settings: perfusate NaCl 0.9% 5 μL/min, 37°C; for Concentration dialysate: EIRUS catheter 5000 Da cutoff, immunoassay, mean (range)
[2] = Unbound drug concentration in the external medium by ultrafiltration (Centrifree) and immunoassay; settings: mean (range)
[3] = Human plasma, immunoassay, triplicate (gentamicin marked **)
[4] = Human serum, immunoassay, triplicate (gentamicin repeated twice)
[5] = Medium 5: 0.2 mmol/L phosphate buffer with albumin 40 g/L in NaCl 0.9% pH 6.9, immunoassay, triplicate

Row | SMILES | Concentration dialysate ([1]; Human plasma, triplicate (gentamicin marked **)) | Concentration dialysate ([1]; Human serum, triplicate (gentamicin repeated twice)) | Concentration dialysate ([1]; Medium 3: 0.2 mmol/L phosphate buffer pH 7.4, triplicate) | Concentration dialysate ([1]; Medium 5: 0.2 mmol/L phosphate buffer with albumin 40 g/L in NaCl 0.9% pH 6.9, triplicate) | Unbound drug concentration medium [2, 3] | Unbound drug concentration medium [2, 4] | Unbound drug concentration medium [2, 5] | Time after which a constant (stable) recovery was observed ([1]; EIRUS catheter, t-test: significant difference prior to 60 minutes, none after) | Unbound drug concentration medium ([2]; Medium 4: 0.2 mmol/L phosphate buffer with albumin 40 g/L pH 7.1, immunoassay, triplicate) | Unbound drug concentration medium ([2]; Medium 6: 0.2 mmol/L phosphate buffer with albumin 40 g/L in NaCl 1.8%, immunoassay, repeated twice)
1 | CNC(C)C1CCC(N)C(OC2C(N)CC(N)C(OC3OCC(C)(O)C(NC)C3O)C2O)O1 (stereo not shown) [Gentamicin] | 8.4 (7.1‐9.6) mg/L | 7.1 (5.8‐8.3) mg/L | 21.5 (21.1‐21.8) mg/L | 7.5 (7.4‐7.8) mg/L | 8.9 (7.7‐10.9) mg/L | 7.7 (6.6‐8.9) mg/L | 7.3 (7.2‐7.4) mg/L | – | – | –
2 | CN[C@H](CC(C)C)C(=O)N[C@H]1C(=O)N[C@@H](CC(N)=O)C(=O)N[C@H]2C(=O)N[C@H]3C(=O)N[C@H](C(=O)N[C@H](C(=O)O)c4cc(O)cc(O)c4-c4cc3ccc4O)[C@H](O)c3ccc(c(Cl)c3)Oc3cc2cc(c3O[C@@H]2O[C@H](CO)[C@@H](O)[C@H](O)[C@H]2O[C@H]2C[C@](C)(N)[C@H](O)[C@H](C)O2)Oc2ccc(cc2Cl)[C@H]1O [Vancomycin] | – | – | – | – | 13.2 (10.0‐14.9) mg/L | 13.2 (13.2‐13.2) mg/L | 10.3 (10.3‐10.4) mg/L | 60 min | 6.7 (6.6‐7.4) mg/L | 13.3 (13.3‐13.3) mg/L
